Patent publication US12472218B2, “Seneca valley virus (SVV) cellular receptor targeted oncotherapy” (Memorial Sloan-Kettering Cancer Center, priority 2015, dated 2025)

Assays:
H1618 and DMS79 cells = test: IFN response activity assay: pre-treatment, SVV-GFP challenge, flow cytometry; conditions: then SVV-GFP 16 h, both cell lines; for GFP+ cells compared to untreated cells: 4 μM HDAC inhibitor pre-treatment 24 h
parental H446 cells = test: SVV-Cy5 binding experiment, flow cytometry; parameters: species or system human; conditions: SVV-Cy5 30 min at 37° C.
Method: (§1) SVV was incubated with the amine-reactive Cy5 dye (GE Healthcare) in sodium carbonate buffer (pH 9.3) for 1 h at room temperature (RT). Excess dye was removed by filtration through gel filtration columns (GE Healthcare) in HEPES buffer. Virus aliquots were stored at −80° C. parental, ANTXR1 KO, and TEX2 KO H446 cells were incubated with SVV-Cy5 for 30 min at 37° C. in OptiMEM. The non-permissive SCLC cell line, DMS114, was used as a negative control. […] All compensation and gating were performed with FlowJo analysis software (TreeStar) as described below.

ANTXR1 KO H446 cells = test: SVV-Cy5 binding experiment, flow cytometry; parameters: species or system human; conditions: SVV-Cy5 30 min at 37° C.
Method: as §1

TEX2 KO H446 cells = test: SVV-Cy5 binding experiment, flow cytometry; parameters: species or system human; conditions: SVV-Cy5 30 min at 37° C.
Method: as §1

DMS114 cells = test: SVV-Cy5 binding experiment, flow cytometry; parameters: species or system human; conditions: SVV-Cy5 30 min at 37° C.; non-permissive negative control line
Method: as §1

[1] = target: T1, Seneca Valley Virus (SVV) (Seneca Valley Virus, UniProt Q155Z9 674-937; Q155Z9 151-434; Q155Z9 435-673; Q155Z9 80-150); test: co-immunoprecipitation on Protein G Dynabeads, Western blot with SVV rabbit antisera
T1 construct: domain: VP1;domain: VP2;domain: VP3;domain: VP4; also called SVV-001; WT SVV
T1 sequence 1: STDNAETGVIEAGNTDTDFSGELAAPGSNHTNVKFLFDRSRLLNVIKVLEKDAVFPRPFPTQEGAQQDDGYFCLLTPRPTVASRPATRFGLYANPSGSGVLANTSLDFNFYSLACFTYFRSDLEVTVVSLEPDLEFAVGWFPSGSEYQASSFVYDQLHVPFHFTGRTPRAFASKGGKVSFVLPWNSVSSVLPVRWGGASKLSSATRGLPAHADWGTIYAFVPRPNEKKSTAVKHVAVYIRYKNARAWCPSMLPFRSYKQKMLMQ
T1 sequence 2: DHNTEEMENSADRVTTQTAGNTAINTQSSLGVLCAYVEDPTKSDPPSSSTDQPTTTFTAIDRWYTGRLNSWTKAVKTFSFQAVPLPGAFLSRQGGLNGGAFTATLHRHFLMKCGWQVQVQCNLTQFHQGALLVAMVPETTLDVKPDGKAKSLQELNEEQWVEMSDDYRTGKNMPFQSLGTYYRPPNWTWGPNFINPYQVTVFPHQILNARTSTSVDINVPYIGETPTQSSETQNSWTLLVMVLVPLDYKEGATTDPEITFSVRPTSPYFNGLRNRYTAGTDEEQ
T1 sequence 3: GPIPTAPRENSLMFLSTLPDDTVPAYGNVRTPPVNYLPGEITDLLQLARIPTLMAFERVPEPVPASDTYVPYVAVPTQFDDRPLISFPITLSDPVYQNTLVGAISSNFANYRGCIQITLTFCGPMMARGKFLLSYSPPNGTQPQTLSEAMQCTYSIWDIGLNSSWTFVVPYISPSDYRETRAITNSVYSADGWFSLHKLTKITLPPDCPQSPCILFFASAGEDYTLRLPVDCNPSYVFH
T1 sequence 4: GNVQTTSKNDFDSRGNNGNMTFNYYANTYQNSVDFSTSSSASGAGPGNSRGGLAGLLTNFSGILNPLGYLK

SVV-GFP = test: Blocking experiment: SVV-GFP pre-incubated with Fc protein, then added to parental H446 cells; conditions: 5 μg/mL Fc protein with SVV-GFP (MOI=5) on ice 1 h, then parental H446 cells overnight
SVV = test: Co-immunoprecipitation of SVV with Fc chimera proteins, Western blot; conditions: Fc protein on Protein G Dynabeads, SVV 2.0×10^10 vp, 2 h at 4° C.

## Nc1ccccc1NC(=O)c1ccc(CNC(=O)OCc2cccnc2)cc1 [MS-275]
H1618 and DMS79 cells
  GFP+ cells compared to untreated cells: significant increase

## O=C(CCCCCCC(=O)Nc1ccccc1)NO [SAHA, Vorinostat]
H1618 and DMS79 cells
  GFP+ cells compared to untreated cells: significant increase

## IFNα
H1618 and DMS79 cells; 25 Units/mL IFN pre-treatment 24 h
  SVV permissive, or GFP+ cells: decrease

## SVV-Cy5: WT SVV labeled with the fluorophore Cy5
Parental H446 cells
  mean fluorescence (MF): 2,373
ANTXR1 KO H446 cells
  mean fluorescence (MF): 358
TEX2 KO H446 cells
  mean fluorescence (MF): 2,233
DMS114 cells
  mean fluorescence (MF): 425

B1: ANTXR2-Fc chimera (Fc fusion)
chain: QEQPSCRRAFDLYFVLDKSGSVANNWIEIYNFVQQLAERFVSPEMRLSFIVFSSQATIILPLTGDRGKISKGLEDLKRVSPVGETYIHEGLKLANEQIQKAGGLKTSSIIIALTDGKLDGLVPSYAEKEAKISRSLGASVYCVGVLDFEQAQLERIADSKEQVFPVKGGFQALKGIINSILAQSCTEILELQPSSVCVGEEFQIVLSGRGFMLGSRNGSVLCTYTVNETYTTSVKPVSVQLNSMLCPAPILNKAGETLDVSVSFNGGKSVISGSLIVTATECSNG
notes: Bought reagent; also called ANTXR2-Fc chimeric protein; ANTXR2-Fc protein; not shown: Fc part of the chimera; the control isotype is an IgG1 Fc
[1]
  binding result: no binding

B2: ANTXR2-Fc (protein)
chain: QEQPSCRRAFDLYFVLDKSGSVANNWIEIYNFVQQLAERFVSPEMRLSFIVFSSQATIILPLTGDRGKISKGLEDLKRVSPVGETYIHEGLKLANEQIQKAGGLKTSSIIIALTDGKLDGLVPSYAEKEAKISRSLGASVYCVGVLDFEQAQLERIADSKEQVFPVKGGFQALKGIINSILAQSCTEILELQPSSVCVGEEFQIVLSGRGFMLGSRNGSVLCTYTVNETYTTSVKPVSVQLNSMLCPAPILNKAGETLDVSVSFNGGKSVISGSLIVTATECSNG
modifications: left off: a dimerising Fc or GST
SVV-GFP
  GFP+ cells (SVV-GFP infection) by fluorescence microscopy: high levels of GFP+ cells
SVV
  SVV viral protein bands co-immunoprecipitated (direct interaction with SVV): absence of an interaction

B3: ANTXR1-Fc (protein)
chain: EDGGPACYGGFDLYFILDKSGSVLHHWNEIYYFVEQLAHKFISPQLRMSFIVFSTRGTTLMKLTEDREQIRQGLEELQKVLPGGDTYMHEGFERASEQIYYENRQGYRTASVIIALTDGELHEDLFFYSEREANRSRDLGAIVYCVGVKDFNETQLARIADSKDHVFPVNDGFQALQGIIHSILKKSCIEILAAEPSTICAGESFQVVVRGNGFRHARNVDRVLCSFKINDSVTLNEKPFSVEDTYLLCPAPILKEVGMKAALQVSMNDGLSFISSSVIITTTHCSDGS
modifications: left off: a dimerising Fc or GST
SVV-GFP
  GFP+ cells (SVV-GFP infection) by fluorescence microscopy: no detectable GFP+ cells
SVV
  SVV viral protein bands co-immunoprecipitated (direct interaction with SVV): viral protein bands were observed
